Drawing on patent publication US20260199273A1, “Compounds for the Treatment of Neuromuscular Disorders” (NMD PHARMA A/S, priority 2022, published 2026), this text covers EC50 and activation for 21 compounds.

For one experiment, the target named is T1, CIC-1 ion channel (Rattus norvegicus, UniProt P35524).
T1 construct: from tissue; host or cells: whole soleus muscle of 12-14 week old Wistar rats
T1 sequence (P35524 1-994): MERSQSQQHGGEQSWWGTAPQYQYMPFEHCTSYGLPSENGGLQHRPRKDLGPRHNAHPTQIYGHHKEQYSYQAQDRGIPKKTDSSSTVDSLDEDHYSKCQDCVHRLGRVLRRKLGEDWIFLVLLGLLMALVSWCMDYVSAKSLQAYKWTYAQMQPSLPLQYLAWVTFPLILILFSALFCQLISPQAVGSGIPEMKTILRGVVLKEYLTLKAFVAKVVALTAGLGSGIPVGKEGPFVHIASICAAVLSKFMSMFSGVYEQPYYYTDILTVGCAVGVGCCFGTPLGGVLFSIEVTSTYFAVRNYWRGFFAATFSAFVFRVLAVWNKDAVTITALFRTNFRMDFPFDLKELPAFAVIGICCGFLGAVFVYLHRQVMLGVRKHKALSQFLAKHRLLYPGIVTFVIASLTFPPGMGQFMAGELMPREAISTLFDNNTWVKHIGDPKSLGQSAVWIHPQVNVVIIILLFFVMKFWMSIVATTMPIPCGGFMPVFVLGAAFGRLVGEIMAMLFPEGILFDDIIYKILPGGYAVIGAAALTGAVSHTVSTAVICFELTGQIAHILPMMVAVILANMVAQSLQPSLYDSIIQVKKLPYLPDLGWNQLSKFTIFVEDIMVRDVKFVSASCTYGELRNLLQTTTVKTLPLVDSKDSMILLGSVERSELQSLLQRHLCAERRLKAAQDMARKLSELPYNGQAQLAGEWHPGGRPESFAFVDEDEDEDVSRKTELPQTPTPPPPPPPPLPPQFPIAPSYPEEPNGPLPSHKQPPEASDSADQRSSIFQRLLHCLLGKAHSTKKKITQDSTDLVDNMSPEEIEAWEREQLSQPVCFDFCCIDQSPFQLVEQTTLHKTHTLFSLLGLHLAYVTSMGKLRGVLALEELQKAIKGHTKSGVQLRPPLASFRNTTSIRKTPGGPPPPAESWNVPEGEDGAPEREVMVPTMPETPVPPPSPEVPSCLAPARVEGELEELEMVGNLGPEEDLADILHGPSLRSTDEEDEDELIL
The experiment is described as follows: Electrophysiological measurement of compound inhibition of CIC-1 in rat muscle (Gm in soleus fibres, three micro-electrodes). The experiment is classed as cell-based. Particulars: Gm in individual fibres of whole rat soleus muscles, approx. 30° C., four increasing compound concentrations; read-out: Potency Range (EC50, inhibition of CIC-1 ion channel). As for the experimental part:
Apparent CIC-1 affinity was reported by the concentration of compound at which 50% of the compound's full inhibition of CIC-1 was observed (EC50) (see also WO2019/115777).
Experimentally, Gm was measured in individual fibres of whole rat soleus muscles using a three micro-electrodes technique described in this example and in full detail elsewhere (Riisager et al., Determination of cable parameters in skeletal muscle fibres during repetitive firing of action potentials. Journal of Physiology, 2014, 592, 4417-4429). Briefly, intact rat soleus muscles were dissected out from 12-14 week old Wistar rats and placed in an experimental chamber that was perfused with a standard Krebs Ringer solution containing 122 mM NaCl, 25 mM NaHCO3, 2.8 mM KCl, 1.2 mM KH2PO4, 1.2 mM MgSO4, 1.3 mM CaCl2, 5.0 mM D-glucose. During experiments, the solution was kept at approx. 30° C. and continuously equilibrated with a mixture of 95% O2 and 5% CO2, pH ~7.4. The experimental chamber was placed in Nikon upright microscope that was used to visualize individual muscle fibres and the three electrodes (glass pipettes filled with 2 M potassium citrate). For Gm measurements, the electrodes were inserted into the same fibre with known inter-electrode distances of 0.35-0.5 mm (V1-V2, X1) and 1.1-1.5 mm (V1-V3, X3). The membrane potential of the impaled muscle fibre was recorded by all electrodes. Two of the electrodes were furthermore used to inject 50 ms current pulses of −30 nA. […] The steady state voltage deflection at each distance was divided by the magnitude of current injected (−30 nA) and the resulting transfer resistances were plotted against inter-electrode distance and the data was fitted to a mono-exponential function from which Gm could be calculated using linear cable theory.
To establish a dose response relationship, Gm was first determined in 10 muscle fibres in the absence of compound and then at four increasing compound concentrations with Gm determinations in 5-10 fibres at each concentration. The average Gm values at each concentration were plotted against compound concentration and the data was fitted to sigmoidal function to obtain an EC5o value.

Experiment [1] deals with isolated rat soleus nerve-muscle preparations. The experiment is described as follows: Measurement of force in an in vitro model: recovery of nerve-stimulated contractile force after tubocurarine. Particulars: 40 min, after 40 mins of compound exposure, tubocurarine (115 nM) for 90 minutes, read-out: Point increase (%): percentage increase of initial force that was restored; for activation at 50 µM: 50 μM of test compound; for activation at 10 µM: 10 μM of test compound. As for the experimental part:
In one aspect, the invention relates to a method for recovery of force in muscles with neuromuscular dysfunction, said method comprising administering a compound or a composition as defined herein to a subject in need thereof. The term “recovery of force in muscles with neuromuscular dysfunction” as used herein refers to the ability of a compound to recover contractile force in nerve-stimulated healthy rat muscle after exposure to submaximal concentration (115 nM) of tubocurarine for 90 minutes.
Recovery of force is quantified as the percentage of the force prior to tubocurarine that is recovered after addition of the compound. In one embodiment, said recovery of force is >5%, such as >10%, such as >15%, such as >20%, such as >25%, such as >30%, such as >35%.
The current disclosure relates to compounds that inhibit CIC-1 ion channels and increase muscle excitability and thereby improve muscle function in clinical conditions where muscle activation is failing. Such conditions result in loss of contractile function of skeletal muscle, weakness and excessive fatigue. In this series of experiments the compounds were tested for their ability to restore contractile function of isolated rat muscle when the neuromuscular transmission had been compromised akin to neuromuscular disorders.
Experimentally, soleus muscles from 4-5 week old rats were isolated with the motor nerve remaining attached. The nerve-muscle preparations were mounted in experimental setups that enabled electrical stimulation of the motor nerve. Stimulation of the motor nerve led to activation of the muscle fibres and ensuing force production that was recorded. The nerve-muscle preparations were also in these experiments incubated in the standard Krebs Ringer (see example 15) and the solution was heated to 30° C. and continuously equilibrated with a mixture of 95% O2 and 5% CO2, pH ~7.4.
After mounting the nerve-muscle preparation in the experimental setup, the contractile function of the muscle was initially assessed under the control conditions. Sub-maximal concentration of tubocurarine (115 nM), an acetylcholine receptor antagonist, was then added to the experimental bath to impose partial inhibition of the ability of the motor nerve to activate the muscle fibres. The experimental condition mimics the failing neuromuscular transmission in a range of neuromuscular disorders. After addition of tubocurarine the contractile force declined over the next 90 minutes to 10-50% of the control force. The test compound was then added to obtain the required compound concentration in the bath and the contractile force recovered was measured. To quantify the ability of the compound to restore force the percentage of the initial force that was restored was determined after 40 mins of compound exposure and the point increase is reported in Tables 3 to 7.

`O=C(O)c1c(F)c(F)cc2c1CCCC2` [Compound A-44, 2,3-Difluoro-5,6,7,8-tetrahydronaphthalene-1-carboxylic acid]: on CIC-1 ion channel, the EC50 (commonly the concentration at which the effect is half-maximal) lay in the range of 2000 to 10000 nM. In addition, the activation at 50 µM in experiment [1] came out at 59%.

For the compound `O=C(O)c1c(F)c(Cl)cc2c1N(Cc1ccc(F)cc1)CCC2` [Compound A-72, 6-Chloro-7-fluoro-1-[(p-fluorophenyl)methyl]-1,2,3,4-tetrahydro-8-quinolinecarboxylic acid], the EC50 at CIC-1 ion channel was in the range of 200 to 2000 nM. Moreover, in experiment [1], the activation at 10 µM came out at 20%.

For `Cc1cc2c(c(C(=O)O)c1C)CCCC2` [Compound A-5, 2,3-dimethyl-5,6,7,8-tetrahydronaphthalene-1-carboxylic acid], the EC50 on CIC-1 ion channel was 10000 to 20000 nM. Moreover, the activation at 50 µM in experiment [1] came out at 43%.

With `CSc1c(Cl)cc2c(c1C(=O)O)CCCC2` [Compound A-32, 3-Chloro-2-(methylsulfanyl)-5,6,7,8-tetrahydronaphthalene-1-carboxylic acid], the 50% effective concentration (EC50) at CIC-1 ion channel was 200 to 2000 nM. Further, the activation at 10 µM in experiment [1] is 24%.

`COc1cc2c(c(C(=O)O)c1Cl)CCCCC2` [Compound A-24, 2-Chloro-3-methoxy-6,7,8,9-tetrahydro-5H-benzo[7]annulene-1-carboxylic acid]: the 50% effective concentration (EC50) at CIC-1 ion channel is 2000 to 10000 nM. Also, the activation at 50 µM in experiment [1] was found to be 43%.

On to `Cc1cc2c(c(C(=O)O)c1F)CCCC2` [Compound A-49, 2-Fluoro-3-methyl-5,6,7,8-tetrahydronaphthalene-1-carboxylic acid], for which, on CIC-1 ion channel, the EC50 lay in the range of 200 to 2000 nM. Further, in experiment [1], the activation at 10 µM stood at 40%.

`CN1CCCc2cc(Cl)c(F)c(C(=O)O)c21` [Compound A-40, 6-Chloro-7-fluoro-1-methyl-1,2,3,4-tetrahydroquinoline-8-carboxylic acid]: on CIC-1 ion channel, the concentration for a half-maximal effect (EC50) lay within 200 to 2000 nM. The activation at 10 µM in experiment [1] came to 39%.

For the compound `Cc1c(Cl)cc2c(c1C(=O)O)C1CCC2C1` (stereo not drawn) [Compound A-21, 5-chloro-4-methyltricyclo[6.2.1.0^2,7]undeca-2(7),3,5-triene-3-carboxylic acid], the EC50 at CIC-1 ion channel was 10000 to 20000 nM. Besides, the activation at 50 µM in experiment [1] turned out to be 42%.

Take `O=C(O)c1c(F)c(Cl)cc2c1CCCC2` [Compound A-26, 3-Chloro-2-fluoro-5,6,7,8-tetrahydronaphthalene-1-carboxylic acid]: the EC50 on CIC-1 ion channel was 200 to 2000 nM. Also, the activation at 10 µM in experiment [1] amounted to 52%.

On to `O=C(O)c1c(F)c(F)cc2c1SCCC2` [Compound A-42, 6,7-difluoro-3,4-dihydro-2H-1-benzothiopyran-8-carboxylic acid], for which the concentration giving a half-maximal response (EC50) at CIC-1 ion channel lay in the range of 10000 to 20000 nM. In experiment [1], the activation at 50 µM was determined as 47%.

Turning to `O=C(O)c1cc(Cl)cc2c1CCCC2` [Compound A-3, 3-chloro-5,6,7,8-tetrahydronaphthalene-1-carboxylic acid], on CIC-1 ion channel, the EC50 was in the range of 2000 to 10000 nM. Also, the activation at 10 µM in experiment [1] came out at 38%.

As for `CCc1cc2c(c(C(=O)O)c1F)CCCC2` [Compound A-51, 3-Ethyl-2-fluoro-5,6,7,8-tetrahydronaphthalene-1-carboxylic acid], the EC50 at CIC-1 ion channel was in the range of 2000 to 10000 nM. Moreover, the activation at 10 µM in experiment [1] stood at 29%.

In the case of `COc1c(Cl)cc2c(c1C(=O)O)C1CCC2CC1` [Compound A-29, 5-Chloro-4-methoxytricyclo[6.2.2.0^2,7]dodeca-2,4,6-triene-3-carboxylic acid], the EC50 on CIC-1 ion channel is 2000 to 10000 nM. Moreover, the activation at 50 µM in experiment [1] came out at 42%.

For `Cc1cc2c(c(C(=O)O)c1C)CCC2` [Compound A-4, 5,6-dimethyl-2,3-dihydro-1H-indene-4-carboxylic acid], the half-maximal effective concentration (EC50) at CIC-1 ion channel lay in the range of 10000 to 20000 nM. In experiment [1], the activation at 50 µM turned out to be 30%.

On to `O=C(O)c1c(F)c(Cl)cc2c1SCCC2` [Compound A-38, 6-Chloro-7-fluoro-3,4-dihydro-2H-1-benzothiopyran-8-carboxylic acid], for which the EC50 at CIC-1 ion channel fell in the range of 200 to 2000 nM. The activation at 10 µM in experiment [1] is 48%.

Turning to `COc1c(Cl)cc2c(c1C(=O)O)SCCC2` [Compound A-31, 6-chloro-7-methoxy-3,4-dihydro-2H-1-benzothiopyran-8-carboxylic acid], the EC50 at CIC-1 ion channel was 200 to 2000 nM. The activation at 10 µM in experiment [1] came out at 48%.

With `Cc1cc2c(c(C(=O)O)c1F)SCCC2` [Compound A-48, 7-fluoro-6-methyl-3,4-dihydro-2H-1-benzothiopyran-8-carboxylic acid], at CIC-1 ion channel, the EC50 lay within 2000 to 10000 nM. Moreover, the activation at 10 µM in experiment [1] was 25%.

As for `O=C(O)c1c(F)c(Cl)cc2c1N(Cc1ccccc1)CCC2` [Compound A-71, 1-Benzyl-6-chloro-7-fluoro-1,2,3,4-tetrahydro-8-quinolinecarboxylic acid], the 50% effective concentration (EC50) on CIC-1 ion channel was 200 to 2000 nM. For the same compound, the activation at 10 µM in experiment [1] is 23%.

Take `O=C(O)c1c(F)c(Cl)cc2c1CCCO2` [Compound A-39, 7-Chloro-6-fluoro-3,4-dihydro-2H-1-benzopyran-5-carboxylic acid]: at CIC-1 ion channel, the half-maximal effective concentration (EC50) lay in the range of 200 to 2000 nM. Besides, in experiment [1], the activation at 10 µM was determined as 59%.

Consider `COc1c(Cl)cc2c(c1C(=O)O)OCCC2` [Compound A-69, 6-Chloro-7-methoxy-3,4-dihydro-2H-1-benzopyran-8-carboxylic acid], for which, at CIC-1 ion channel, the EC50 lay within 200 to 2000 nM. For the same compound, the activation at 10 µM in experiment [1] was determined as 55%.

For `Cc1cc2c(c(C(=O)O)c1Cl)CCCC2` [Compound A-28, 2-chloro-3-methyl-5,6,7,8-tetrahydronaphthalene-1-carboxylic acid], at CIC-1 ion channel, the concentration giving a half-maximal response (EC50) fell in the range of 2000 to 10000 nM. Besides, the activation at 50 µM in experiment [1] came to 39%.
